Laboratory results reported in patent publication US20260250322A1, “NEW PEPTIDES AS SELECTIVE IL-23 RECEPTOR INHIBITORS” (SANOFI, priority 2023, published 2026).
pIC50: −log10 of the molar value. Bridge positions count the residues as written; N and C are the ends. Square brackets hold non-standard residues; d marks the D form. Peptide text beside a SMILES is read from it. Trp(1-Me) = Cn1cc(C[C@H](N)C(=O)O)c2ccccc21; dAla(4-thiazolyl) = N[C@H](Cc1cscn1)C(=O)O; 1Nal = N[C@@H](Cc1cccc2ccccc12)C(=O)O; 2Nal = N[C@@H](Cc1ccc2ccccc2c1)C(=O)O; Cit = NC(=O)NCCC[C@H](N)C(=O)O; αMeL = CC(C)C[C@](C)(N)C(=O)O; Orn = NCCC[C@H](N)C(=O)O; Aib = CC(C)(N)C(=O)O

How the values were obtained:
[1] = Chemical stability (relative purity loss) of peptide compounds in buffer formulations; type: physicochemical
Description: Purity of a compound batch was determined through UHPLC/MS prior to chemical stability measurement using Method A.
For stability assessment, the target concentration was 300 μM pure compound. Therefore, solutions from solid samples were prepared in the following buffer systems with a concentration of ~300 µM compound based on the previously determined % purity. The solid samples were obtained by drying down aliquots of a freshly prepared acetonitrile stock solution using a THERMO SPEEDVAC vacuum centrifuge. The dry down time was 3 hours.
The following buffer systems were applied: • Solubility buffer system A) 100 mM phosphate buffer pH 7.4. • Solubility buffer system B) 100 mM phosphate buffer pH 6.5. • Solubility buffer system C) 100 mM HCl pH 1.2.
Prepared solutions were filtered through […] pore size and filled into sterilized glass containers under laminar flow conditions.
[…] After this time course, the samples were centrifuged for 15 min at 2500 RCF. Then 1.5 μl of the undiluted supernatant were analysed with UHPLC-UV.
The chemical stability was rated through the relative loss of purity calculated by the equation:
[(purity after 0 hours at 37° C.)(purity after 24 hours at 37° C.)]/(purity after 0 hours at 37° C.)]*100%.
The purity is calculated as [(peak area peptide)/(total peak area)]*100%.
Buffer composition: 100 mM HCl pH 1.2, 100 mM phosphate buffer pH 6.5, 100 mM phosphate buffer pH 7.4

human IL-23R = molecular target: T1, human IL-23R (Homo sapiens, UniProt Q5VWK5); experiment: Human ELISA IL-23/IL-23R binding inhibition; conditions: human IL-23 coated, recombinant human IL-23R-Fc chimera
T1 sequence (Q5VWK5 24-355 limits assumed): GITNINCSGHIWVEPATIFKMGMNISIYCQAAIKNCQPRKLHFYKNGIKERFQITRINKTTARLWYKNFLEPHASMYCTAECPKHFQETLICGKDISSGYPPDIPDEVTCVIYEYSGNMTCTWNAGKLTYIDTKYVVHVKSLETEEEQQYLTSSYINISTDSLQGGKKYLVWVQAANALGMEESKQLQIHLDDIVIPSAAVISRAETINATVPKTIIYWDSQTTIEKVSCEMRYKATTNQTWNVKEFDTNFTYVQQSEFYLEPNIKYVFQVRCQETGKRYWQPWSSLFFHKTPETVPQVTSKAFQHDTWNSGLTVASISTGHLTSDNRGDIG
Description: Antagonism of peptide compounds for human interleukin-23 receptor inhibitors, was determined by an ELISA assay.
A 384-well plate was coated with 50 μl/well of human IL-23 at a final concentration of 1 μg/ml and incubated overnight at 4° C. The wells were washed 3 times with 80 μl wash buffer and blocked with 80 μl blocking buffer for 60 minutes at room temperature and washed again. 20 μl of serially diluted test peptides was added to each well and subsequently 20 μl of recombinant human IL-23R-Fc chimera at final concentration of 0.1 μg/ml. The plate was incubated for 60 minutes at room temperature. After the wells were washed, bound IL-23R-Fc was detected with goat anti-hu-lgG1-HRP antibody. Signals were visualized with QuantaBlu Fluorogenic Peroxidase Substrate.

[2] = test system: IL-23 induced STAT3 signaling; experiment: Inhibition of IL-23 induced STAT3 signaling in HEK-Blue IL-23 cells (SEAP reporter); type: cell-based; conditions: human IL-23 0.25 ng/ml, read-out: Inhibition of IL-23 induced pSTAT3 (IC50 nM)
Description: HEK-Blue™ IL-23 cells (Invivogen) are designed for the detection of bioactive human (hIL-23) and murine IL-23 (mIL-23) by monitoring the activation of the STAT3 pathway. Binding of IL-23 to its receptor on the surface of HEK-Blue™ IL-23 cells triggers a signaling cascade leading to the activation of STAT3 and the subsequent production of secreted embryonic alkaline phosphatase (SEAP). This can be readily assessed using QUANTI-Blue™ Solution, a SEAP detection reagent.
HEK-Blue™ IL-23 cells were cultured as described by Invivogen.
On the first day of assay 10 μL of the HEK-Blue IL-23 cell suspension (final concentration: 10,000 cells/well) and 10 μl of serially diluted compound solutions were dispensed into a 384-well assay plate. After pre-incubation of the reaction mixtures at 37° C./5% CO2/95% humidity for 60 minutes, 10 μl of the humanIL-23 cytokine (final concentration: 0.25 ng/ml) was added to each well for the STAT3 signaling activation. The plate was incubated overnight at 37° C./5% CO2/95% humidity.
On the second day 20 μl per well of Quanti-Blue detection solution (prepared according to the manufacture instruction) was dispensed into a new 384-well plate and followed by the transfer of 5 μl supernatant of the overnight incubated cell/sample mixtures. After incubation of 45 min at room temperature signals were measured with PHERAstar (BMG) at OD 620-655 nm.
Dose response data were fitted with XLfit.

[3] = pH 6.5 (100 mM phosphate buffer)
[4] = pH 7.4 (100 mM phosphate buffer)

Row | SMILES | Conc. [mg/ml] 0 h ([1]; pH 1.2 (100 mM HCl)) | Conc. [mg/ml] 24 h 37° C. ([1]; pH 1.2 (100 mM HCl)) | Mass Balance [%] 24 h 37° C. ([1]; pH 1.2 (100 mM HCl)) | Relative Purity Loss [%] 24 h 37° C. ([1]; pH 1.2 (100 mM HCl)) | Conc. [mg/ml] 0 h [1, 3] | Conc. [mg/ml] 24 h 37° C. [1, 3] | Mass Balance [%] 24 h 37° C. [1, 3] | Relative Purity Loss [%] 24 h 37° C. [1, 3] | Conc. [mg/ml] 0 h [1, 4] | Conc. [mg/ml] 24 h 37° C. [1, 4] | Mass Balance [%] 24 h 37° C. [1, 4] | Relative Purity Loss [%] 24 h 37° C. [1, 4] | pIC50 (human IL-23R) | IC50 [2]
1 | COc1ccc(C[C@@H]2NC(=O)[C@H](CCCNC(=N)N)NC(=O)[C@H](CCC(N)=O)NC(=O)[C@H](Cc3c[nH]c4ccccc34)NC(=O)[C@H]([C@@H](C)O)NC(=O)[C@H](CC(N)=O)NC(=O)[C@@H](NC(C)=O)CC(=O)NCCC[C@@H](C(=O)N[C@@H](CC(N)=O)C(=O)N[C@@H](CC(N)=O)C(N)=O)NC(=O)C(C)(C)NC(=O)[C@H](Cc3ccc4ccccc4c3)NC2=O)cc1 [compound 6] (Ac-DNTWQRY(Me)[2Nal][Aib][Orn]NN-NH2; lactam 1-10) | 1.6 mg/mL | 1.1 mg/mL | −3.8% | 27.3% | 1.4 mg/mL | 1.3 mg/mL | −1.4% | 0.6% | 1.4 mg/mL | 1.3 mg/mL | −4.8% | 1.4% | 8.71 | 366 nM
2 | COc1ccc(C[C@@H]2NC(=O)[C@H](CCCNC(=N)N)NC(=O)[C@H](CCC(N)=O)NC(=O)[C@H](Cc3c[nH]c4ccccc34)NC(=O)[C@H]([C@@H](C)O)NC(=O)[C@H](CC(N)=O)NC(=O)[C@H](NC(C)=O)CCCCNC(=O)C[C@@H](C(=O)N[C@@H](CC(N)=O)C(=O)N[C@@H](CC(N)=O)C(N)=O)NC(=O)C(C)(C)NC(=O)[C@H](Cc3ccc4ccccc4c3)NC2=O)cc1 [compound 15] (Ac-[dK]NTWQRY(Me)[2Nal][Aib]DNN-NH2; lactam 1-10) | – | – | – | – | – | – | – | – | – | – | – | – | 8.98 | 426 nM
3 | COc1ccc(C[C@@H]2NC(=O)[C@H](CCCNC(=N)N)NC(=O)[C@H](CCC(N)=O)NC(=O)[C@H](Cc3c[nH]c4ccccc34)NC(=O)[C@H]([C@@H](C)O)NC(=O)[C@H](CC(N)=O)NC(=O)[C@H](NC(C)=O)CCCCNC(=O)C[C@@H](C(=O)N[C@@H](CC(N)=O)C(=O)N[C@@H](CC(N)=O)C(N)=O)NC(=O)C(C)(C)NC(=O)[C@H](Cc3ccc4ccccc4c3)NC2=O)cc1 [compound 3] (Ac-[dK]NTWQRY(Me)[2Nal][Aib]DNN-NH2; lactam 1-10) | 1.5 mg/mL | 1.1 mg/mL | −3.4% | 23.2% | 1.2 mg/mL | 1.1 mg/mL | −3.6% | 1.1% | 1.4 mg/mL | 1.3 mg/mL | −3.1% | 3.6% | 8.81 | 430 nM
4 | COc1ccc(C[C@@H]2NC(=O)[C@H](CC(C)C)NC(=O)[C@H](CCC(N)=O)NC(=O)[C@H](Cc3c[nH]c4ccccc34)NC(=O)[C@H]([C@@H](C)O)NC(=O)[C@H](CC(N)=O)NC(=O)[C@H](NC(C)=O)CCCCNC(=O)C[C@@H](C(=O)N[C@@H](CC(N)=O)C(=O)N[C@@H](CC(N)=O)C(N)=O)NC(=O)C(C)(C)NC(=O)[C@H](Cc3cccc4ccccc34)NC2=O)cc1 [compound 7] (Ac-[dK]NTWQLY(Me)[1Nal][Aib]DNN-NH2; lactam 1-10) | 1.1 mg/mL | 0.7 mg/mL | −9.6% | 26.5% | 1.5 mg/mL | 1.5 mg/mL | −3.9% | 0.3% | 1.1 mg/mL | 1.0 mg/mL | −2.3% | 4.7% | 8.61 | 850 nM
5 | COc1ccc(C[C@@H]2NC(=O)[C@H](CCCNC(=N)N)NC(=O)[C@H](CCC(N)=O)NC(=O)[C@H](Cc3cn(C)c4ccccc34)NC(=O)[C@H]([C@@H](C)O)NC(=O)[C@H](CC(N)=O)NC(=O)[C@H](NC(C)=O)CCCCNC(=O)C[C@@H](C(=O)N[C@@H](CC(N)=O)C(=O)N[C@@H](CC(N)=O)C(N)=O)NC(=O)[C@](C)(CC(C)C)NC(=O)[C@H](Cc3ccc4ccccc4c3)NC2=O)cc1 [compound 24] (Ac-[dK]NT[Trp(1-Me)]QRY(Me)[2Nal][αMeL]DNN-NH2; lactam 1-10) | – | – | – | – | – | – | – | – | – | – | – | – | 8.92 | 385 nM
6 | COc1ccc(C[C@@H]2NC(=O)[C@H](CCCNC(=N)N)NC(=O)[C@H](CCC(N)=O)NC(=O)[C@H](Cc3cn(C)c4ccccc34)NC(=O)[C@H]([C@@H](C)O)NC(=O)[C@H](CC(N)=O)NC(=O)[C@H](NC(C)=O)CCCCNC(=O)C[C@@H](C(=O)N[C@@H](CC(N)=O)C(=O)N[C@@H](CC(N)=O)C(N)=O)NC(=O)[C@@H](Cc3cscn3)NC(=O)[C@H](Cc3ccc4ccccc4c3)NC2=O)cc1 [compound 25] (Ac-[dK]NT[Trp(1-Me)]QRY(Me)[2Nal][dAla(4-thiazolyl)]DNN-NH2; lactam 1-10) | – | – | – | – | – | – | – | – | – | – | – | – | 8.02 | 3830 nM
7 | COc1ccc(C[C@@H]2NC(=O)[C@H](C(C)C)NC(=O)[C@H](CCC(N)=O)NC(=O)[C@H](Cc3c[nH]c4ccccc34)NC(=O)[C@H]([C@@H](C)O)NC(=O)[C@H](CC(N)=O)NC(=O)[C@H](NC(C)=O)CCCCNC(=O)C[C@@H](C(=O)N[C@@H](CC(N)=O)C(=O)N[C@@H](CC(N)=O)C(N)=O)NC(=O)C(C)(C)NC(=O)[C@H](Cc3cccc4ccccc34)NC2=O)cc1 [compound 20] (Ac-[dK]NTWQVY(Me)[1Nal][Aib]DNN-NH2; lactam 1-10) | – | – | – | – | – | – | – | – | – | – | – | – | 7.80 | 10000 nM
8 | COc1ccc(C[C@@H]2NC(=O)[C@H](CCCNC(=N)N)NC(=O)[C@H](CCC(N)=O)NC(=O)[C@H](Cc3c[nH]c4ccccc34)NC(=O)[C@H]([C@@H](C)O)NC(=O)[C@H](CC(N)=O)NC(=O)[C@H](NC(C)=O)CCCCNC(=O)C[C@@H](C(=O)N[C@@H](CC(N)=O)C(=O)N[C@@H](CC(N)=O)C(N)=O)NC(=O)[C@H](CCCNC(N)=O)NC(=O)[C@H](Cc3ccc4ccccc4c3)NC2=O)cc1 [compound 29] (Ac-[dK]NTWQRY(Me)[2Nal][Cit]DNN-NH2; lactam 1-10) | – | – | – | – | – | – | – | – | – | – | – | – | 8.25 | 2720 nM
9 | COc1ccc(C[C@@H]2NC(=O)[C@H](C(C)C)NC(=O)[C@H](CCC(N)=O)NC(=O)[C@H](Cc3c[nH]c4ccccc34)NC(=O)[C@H]([C@@H](C)O)NC(=O)[C@H](CC(N)=O)NC(=O)[C@H](NC(C)=O)CCCCNC(=O)C[C@@H](C(=O)N[C@@H](CC(N)=O)C(=O)N[C@@H](CC(N)=O)C(N)=O)NC(=O)C(C)(C)NC(=O)[C@H](Cc3ccc4ccccc4c3)NC2=O)cc1 [compound 31] (Ac-[dK]NTWQVY(Me)[2Nal][Aib]DNN-NH2; lactam 1-10) | – | – | – | – | – | – | – | – | – | – | – | – | 8.08 | 128 nM
